In article PMC11078216, “Discovery of potent and selective activity-based probes (ABPs) for the deubiquitinating enzyme USP30” (RSC Chemical Biology, 2024):
One block for each compound: values may come before it.

Molecular target: T1, ALDH1A2 (Homo sapiens, UniProt O94788)
T1 construct: endogenous in cells; host or cells: HEK293T
T1 sequence (O94788 1-518): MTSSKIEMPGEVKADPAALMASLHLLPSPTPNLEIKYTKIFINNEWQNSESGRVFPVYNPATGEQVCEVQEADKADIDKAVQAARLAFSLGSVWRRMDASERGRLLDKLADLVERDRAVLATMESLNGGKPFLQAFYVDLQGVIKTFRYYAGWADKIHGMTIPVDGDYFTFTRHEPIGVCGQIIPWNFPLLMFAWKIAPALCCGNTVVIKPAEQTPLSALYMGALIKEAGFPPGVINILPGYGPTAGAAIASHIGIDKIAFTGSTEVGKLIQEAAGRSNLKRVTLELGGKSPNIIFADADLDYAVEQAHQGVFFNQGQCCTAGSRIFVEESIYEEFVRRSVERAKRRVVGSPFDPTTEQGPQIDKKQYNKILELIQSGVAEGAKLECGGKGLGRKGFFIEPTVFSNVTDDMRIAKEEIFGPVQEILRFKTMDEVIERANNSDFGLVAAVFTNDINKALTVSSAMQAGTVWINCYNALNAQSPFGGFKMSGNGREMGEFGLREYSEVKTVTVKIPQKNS
Assay: ABPP chemical proteomics (LC-MS/MS) in HEK293T cells
Assay type: cell-based
Experimental: To explore the selectivity of IMP-2587 and IMP-2586 across the whole proteome, we performed quantitative activity-based protein profiling (ABPP) in HEK293T cells following treatment with IMP-2587 or IMP-2586 (Fig. 3a). After ABP incubation, cells were lysed, and probe-labelled proteins were ligated to biotinylated capture reagents.[27] […] USP30 was outcompeted by corresponding parent inhibitors for each ABP (Fig. 5b and d and Tables S3 and S5, ESI ^†), confirming the high potency and rapid engagement of IMP-2587 and IMP-2586 in cells. […] DESI1 and DESI2 are small ubiquitin-related modifier (SUMO) proteases,[3,29–32] and IMP-2587 and IMP-2586 may offer a starting point for future development of DESI ABPs. […]
d) Live cell probe incubation, lysate click chemistry and precipitation 6-well HEK293T cells were incubated with media containing compounds ABP 2 and ABP 4 at indicated concentrations for 1 h at 37 °C. The cells were washed with PBS and lysed with lysis buffer (50 μL (1% (v/v) Triton X-100, 0.1% (w/v) sodium dodecyl sulfate (SDS), EDTA-free complete protease inhibitor cocktail (1×, Roche) in PBS on ice for 10 min. The lysates were scraped and transferred to corresponding Lo-Bind Eppendorfs. Each lysate was sonicated for 1 minute, and the samples centrifuges at 5,000 x g at 4 °C for 5 minutes to pellet insoluble cellular debris. The supernatant was collected, and protein concentration was determined using the DC Protein Assay (Bio-Rad) as per manufacturer’s instructions, and normalised to lowest concentrated sample (e.g. 1 mg/mL, using lysis buffer). The following “click mixture” was prepared separately, preparing 6 μL for every 100 μL of […]
Capture reagent (AzRB/AzT for ABP 2, YnT/YnB for ABP 4 10 mM in DMSO, 1 vol; final concentration […]
CuSO4 (50 mM in water, 2 vol; final concentration in reaction 1 mM)
TCEP (50 mM in water, 2 vol; final concentration in reaction 1 mM)
TBTA (10 mM in DMSO, 1 vol; final concentration in reaction 100 µM)
The click mixture was vortexed and incubated at room temperature for 2 min before 6 μL of the mixture was added to every 100 μL of lysate. The reaction mixtures were shaken at room temperature for 1 h before being quenched with EDTA (500 mM in H2O) to a final concentration of 10 mM.
Proteins were precipitated by adding H2O (1 vol), MeOH (2 vol) and CHCl3 (0.5 vol), vortexing briefly then centrifuging at 17,000 × g for 5 min. The top H2O/MeOH layer was discarded and the middle layer of protein pellet and lower CHCl3 layer retained. The suspension was washed with MeOH (300 μL), and sonicated to break up the pellet. The proteins were pelleted by centrifugation at 10,000–17000 × g for 5–10 min or until a compact pellet was formed. The protein pellet was washed once more with MeOH (1 mL). The pellet was resuspended by sonicating and completely dissolving in 1% (w/v) SDS in PBS (to 5 mg/mL protein) before being made up to 1 mg/mL protein with PBS.
The lysate samples (10-20 μg) were mixed with 4× Laemmli sample loading buffer (250 mM Tris -HCl pH 6.8, 30% (v/v) glycerol, 10% (w/v) SDS, 0.05% (w/v) bromophenol blue) supplemented with 20% v/v β-mercaptoethanol (BME) and boiled for 10 min at 95 °C. The resulting protein samples were separated according to the protocol in section 3.2.c. Gel were imaged on a Typhoon imager (GE Healthcare; λEx 532 nm, λEm 575 nm for TAMRA. For protein loading quantification, gels were stained with Coomassie blue staining solution overnight, rinsed with water and imaged on an ImageQuant™ LAS 4000 imager (GE Healthcare). f) Neutravidin biotin enrichment (Affinity pull-down)
Click chemistry and precipitation steps were carried out as described in section 3.2.d, on at least 400ug of protein per sample. The pellet was resuspended by sonicating and completely dissolving in 1% (w/v) SDS in HEPES 50 mM pH 8.0, before being made up to 1 mg/mL protein with HEPES 50 mM pH 8.0 to […]
achieve a final concentration of 0.2% SDS. 20uL of each samples was collected as TL (Total lysate) […]
samples. […]

Compound: N#CN1CC[C@@H](NC(=O)c2cc(-c3ccccc3Oc3ccc(N=[N+]=[N-])cc3)n[nH]2)C1 [IMP-2586]
Difference (log2 fold change of enrichment) (IMP-2586 labelling vs DMSO, 30 nM, 10 min, HEK293T (Table S4, Fig.5c)): 3.54

Compound: C#Cc1cccc(-c2cc(NC(=O)CC3CCN(C#N)C3)on2)c1 (stereo not shown) [IMP-2587]
Difference (log2 fold change of enrichment) (IMP-2587 labelling vs DMSO, 30 nM, 10 min, HEK293T (Table S2, Fig.5a)): 3.97

Difference (log2 fold change of enrichment) (compound 1 out-competition with IMP-2587 labelling, HEK293T (Table S3, Fig.5b)): -3.93
Compound: N#CN1CC[C@H](CC(=O)Nc2cc(-c3cccc(Cl)c3)no2)C1 [compound 1, reference compound]

Difference (log2 fold change of enrichment) (compound 3 out-competition with IMP-2586 labelling, HEK293T (Table S5, Fig.5d)): -2.44
Compound: N#CN1CC[C@@H](NC(=O)c2cc(-c3ccccc3Oc3ccccc3)n[nH]2)C1 [compound 3, reference compound]
